In US4371544A, “Pharmaceutical composition containing 1,1,3,5-substituted biuret compound” (Taiho Pharmaceutical Company Limited, priority 1979, dated 1983):
Read-outs that look alike come from different tables or passages of the source.

Legend:
[1] = Acute toxicity (oral, mice, 7 days observation); type: in vivo; conditions: mouse, in vivo
Experimental: (§1) Next, several tests for determining the pharmacological properties, in that acute toxicity, anti-pyretic activity, analgesic activity and anti-inflammatory activity of the present 1,1,3,5-substituted biuret compounds of the formula (1) were conducted and the test results are shown in Table (2). In the tests, each compounds to be tested was used as a suspension in 0.25% carboxymethylcellulose solution. Methods for testing are explained as follows:
(§2) The ddy strain of male mice (body weight, 20-25 g) were used as test animals. The mice were fasted overnight and the compound to be tested was administered orally. […] The lethal dose (mg/kg, body weight) of the test compound was determined in connection with the death number of mice/the number of mice tested. In Table 2, the values indicated with Δ marks are 50% lethal dose, LD50 (mg/kg, body weight).

ddy strain of male mice [2] = assay: Analgesic activity, acetic acid-induced stretching method; type: in vivo, mouse (ddy); conditions: for ED50: oral, Δ mark, range in parentheses
Experimental: as §1
According to the method reported by Koster et al., [Fed. Proc., Vol. 18, pp. 412 (1959)], the ddy strain of male mice (body weight, 20-25 g) were used as test animals. The mice were fasted overnight, 100 mg/kg body weight of the test compound was administered orally, then 1 hour after the administration, 0.2 ml of 0.7% acetic acid solution was injected intraperitoneally. The acetic acid-induced stretching symptom of mouse was observed. Analgesic activity of the test compound was calculated as the inhibitory ratio (%). In Table 2, the values in parentheses show the data obtained from the test by using the dosage other than 100 mg/kg body weight. Further, the values indicated with Δ marks show 50% effective dose, ED50 (mg/kg body weight).

ddy strain of male mice [3] = assay: Analgesic activity, Haffner method (morphine threshold dose, clamp); type: in vivo, mouse (ddy); conditions: for inhibition in vivo at 100 mg/kg / Analgesic activity, Haffner method, inhibitory ratio: 100 mg/kg oral, 45 minutes before morphine hydrochloride; for ED50: oral, Δ mark, range in parentheses; for inhibition in vivo at 200 mg/kg: 200 mg/kg oral
Experimental: as §1
According to the modified method reported by Fujimura et. al., [Bulletin of the Institute for Chemical Research, Kyoto University, No. 25, pp. 36 (1951)], the ddy strain of male mice (body weight, 20-25 g) were used as test animals. The mice were fasted overnight, 100 mg/kg body weight of the test compound was administered orally, then 45 minutes after the administration, the threshold amount (1.5-2.5 mg/kg body weight) of morphine hydrochloride was injected subcutaneously. Then 1-hour pain reaction of the mouse caused by a clamp was observed. Analgesic activity of the test compound was calculated as the inhibitory ratio (%). In Table 2, the values in parentheses show the data obtained from the test by using the dosage other than 100 mg/kg body weight. Further, the values indicated with Δ marks show 50% effective dose, ED50 (mg/kg body weight).

[4] = system: Wistar strain of male rats; assay: Anti-pyretic activity (dry-yeast-induced fever); type: in vivo, rat (Wistar); conditions: oral (dose not given), up to 4 hours after administration
Experimental: as §1
According to the method reported by Tanabe [Folia Pharmacologia Japonica, Vol. 73, pp. 803 (1977)], the Wistar strain of male rats (150-180 g, body weight) were used as test animals. The rats were fasted overnight, and 1 ml/100 g (body weight) of 10% dry-yeast suspension were subcutaneously injected on the back of the rats. Five hours after the injection, the test compound was administered orally, then the body temperature of the rat was measured at time sequences. Anti-pyretic activity of the test compound was determined as the FI (febril index) by integrating pyrogenetic curve up to 4 hours after the administration of the test compound with time, and indicated as inhibitory ratio (%) shown by the following formula, [formula]

[5] = system: Wistar strain of male rats; assay: Anti-inflammatory activity (acute carrageenin-induced inflammatory test, hindpaw); type: in vivo, rat (Wistar)
Experimental: as §1
According to the method of acute carrageenin-induced inflammatory test [Folia Pharmacologia Japonica, Vol. 56, pp. 575 (1960)], the Wistar strain of male rats (body weight, 150-180 g) were used as test animals. The rats were fasted overnight, 100 mg/kg body weight of the test compound was administered orally, then 1 hour after the administration, 0.1 ml of 1% carrageenin solution, as the inflammation inducing agent, was injected subcutaneously to the hindpaw of the rat and the volume of the hindpaw was measured at time sequences, Anti-inflammatory activity of the test compound was calculated as inflammation inhibitory ratio (%) at 3 hours after the injection of inflammation inducing agent.

ddy strain of male mice [6] = assay: Acute toxicity (oral, mice, 7 days observation); type: in vivo
Experimental: as §1, §2

[7] = oral, male ddy mice, 7 days observation, Δ mark, read-out: 50% lethal dose, LD50
[8] = Mus musculus, po, read-out: Analgesic activity, acetic acid-induced stretching method, inhibitory ratio
[9] = Mus musculus, read-out: Analgesic activity, Haffner method, inhibitory ratio
[10] = Rattus norvegicus, po, 3 h, read-out: Anti-inflammatory activity, inflammation inhibitory ratio
[11] = Rattus norvegicus, 100 mg/kg oral, 3 hours after carrageenin, read-out: Anti-inflammatory activity, inflammation inhibitory ratio
[12] = 100 mg/kg oral, 1 hour before acetic acid
[13] = 100 mg/kg oral, 3 hours after carrageenin

Structure (SMILES)	inhibition in vivo at 100 mg/kg (ddy strain of male mice [2]; [8]) [%]	inhibition in vivo at 100 mg/kg (ddy strain of male mice [3]; [9]) [%]	Anti-pyretic activity, inhibitory ratio (febril index) [4] [%]	Acute toxicity: death number of mice/number of mice tested (ddy strain of male mice [6]; 1000 mg/kg oral)	Acute toxicity: death number of mice/number of mice tested (ddy strain of male mice [6]; 2000 mg/kg oral)	further results
CN(C(=O)Nc1ccccc1)C(=O)N1CCCCC1 [compound 70, 1,1-Pentamethylene-3-methyl-5-phenylbiuret]	62.5	37.5				LD50 at 168 h [1, 7]: 515 mg/kg
CCN(C(=O)N(C)C(=O)NC)c1ccc(C)cc1 [compound 62]	62.5	37.5	18			LD50 at 168 h ([1]; po): 1480 mg/kg
CCCCN(C(=O)N(C)C(=O)NC)c1ccccc1 [compound 64, 1-n-Butyl-1-phenyl-3,5-dimethylbiuret]	25	37.5	50	2/4		inhibition in vivo at 100 mg/kg [5, 10]: 43%; Acute toxicity: death number of mice/number of mice tested (ddy strain of male mice [6]; 500 mg/kg oral): 1/4
Cc1ccc(NC(=O)N(C)C(=O)N(C)C)cc1 [Compound No. 28, 1,1,3-Trimethyl-5-(4-methylphenyl)biuret]			52		0/4	Anti-inflammatory activity, inflammation inhibitory ratio ([5]; 100 mg/kg oral, (2 hours)): 23%; ED50 (ddy strain of male mice [2]; Mus musculus): 33 mg/kg; ED50 (ddy strain of male mice [3]; Mus musculus): 80 mg/kg
CCCCN(C(=O)Nc1ccccc1)C(=O)N(C)C [compound 38, 1,1-Dimethyl-3-n-butyl-5-phenylbiuret]			18	0/4	3/4	inhibition in vivo at 100 mg/kg [5, 11]: 31%; Analgesic activity, acetic acid-induced stretching method, inhibitory ratio (ddy strain of male mice [2]; [12]): 37.5%; inhibition in vivo at 200 mg/kg (ddy strain of male mice [3]; [9]): 37.5%
CCN(C)C(=O)NC(=O)NCc1ccccc1 [compound 44, 1-Methyl-1-ethyl-5-benzylbiuret]						inhibition in vivo at 100 mg/kg [5, 10]: 47%; LD50 at 168 h [1, 7]: 1400 mg/kg; inhibition in vivo at 200 mg/kg (ddy strain of male mice [2]; Mus musculus, 200 mg/kg oral, read-out: Analgesic activity, acetic acid-induced stretching method, inhibitory ratio): 87.5%
CCCCNC(=O)NC(=O)N(C)c1ccccc1 [compound 52, 1-Methyl-1-phenyl-5-n-butylbiuret]		50	104	0/4	3/4	inhibition in vivo at 100 mg/kg [5, 11]: 48%; inhibition in vivo at 100 mg/kg (ddy strain of male mice [2]; Mus musculus, 100 mg/kg oral, 1 hour before acetic acid, read-out: Analgesic activity, acetic acid-induced stretching method, inhibitory ratio): 62.5%
Cc1cccc(NC(=O)N(C)C(=O)N(C)C)c1 [compound 27, 1,1,3-Trimethyl-5-(3-methylphenyl)biuret]			31		2/4	Anti-inflammatory activity, inflammation inhibitory ratio [5, 13]: 28%; Analgesic activity, acetic acid-induced stretching method, inhibitory ratio (ddy strain of male mice [2]; [12]): 75%; Analgesic activity, Haffner method, inhibitory ratio (ddy strain of male mice [3]): 37.5%
CN(C)C(=O)N(C)C(=O)Nc1c(F)c(F)cc(F)c1F [compound 9, 1,1,3-Trimethyl-5-(2,3,5,6-tetrafluorophenyl)biuret]			33	4/4		Anti-inflammatory activity, inflammation inhibitory ratio [5, 13]: 24%; Acute toxicity: death number of mice/number of mice tested (ddy strain of male mice [6]; 500 mg/kg oral): 0/4; Analgesic activity, acetic acid-induced stretching method, inhibitory ratio (ddy strain of male mice [2]; [12]): 87.5%; Analgesic activity, Haffner method, inhibitory ratio (ddy strain of male mice [3]): 50%
CN(C)C(=O)N(C)C(=O)Nc1cccc(C(F)(F)F)c1 [compound 18, 1,1,3-Trimethyl-5-(3-trifluoromethylphenyl)biuret]			62	0/4	4/4	Anti-inflammatory activity, inflammation inhibitory ratio ([5]; 100 mg/kg oral, (2 hours)): 32%; Analgesic activity, acetic acid-induced stretching method, inhibitory ratio (ddy strain of male mice [2]; [12]): 37.5%; ED50 (ddy strain of male mice [3]; Mus musculus): 64 mg/kg
CCCNC(=O)N(C)C(=O)N(C)c1ccccc1 [Compound No. 55, 1,3-Dimethyl-1-phenyl-5-n-propylbiuret]			80	1/4		inhibition in vivo at 100 mg/kg [5, 11]: 73%; Acute toxicity: death number of mice/number of mice tested (ddy strain of male mice [6]; 1500 mg/kg oral): 4/4; ED50 (ddy strain of male mice [2]; Mus musculus): 80 mg/kg; ED50 (ddy strain of male mice [3]; Mus musculus): 90 mg/kg
CNC(=O)N(C(=O)N(C)C)c1ccccc1 [compound 39, 1,1,5-Trimethyl-3-phenylbiuret]						inhibition in vivo at 25 mg/kg [5, 10]: 33%; LD50 at 168 h [1, 7]: 93 mg/kg; inhibition in vivo at 50 mg/kg (ddy strain of male mice [2]; [8]): 25%; inhibition in vivo at 50 mg/kg (ddy strain of male mice [3]; Mus musculus, 50 mg/kg oral, read-out: Analgesic activity, Haffner method, inhibitory ratio): 25%
CCCNC(=O)NC(=O)N(C)c1ccccc1 [compound 51, 1-Methyl-1-phenyl-5-n-propylbiuret]	37.5	87.5	164	2/4		inhibition in vivo at 100 mg/kg [5, 10]: 60%; Acute toxicity: death number of mice/number of mice tested (ddy strain of male mice [6]; 500 mg/kg oral): 1/4
CCN(CC)C(=O)N(C)C(=O)Nc1ccccc1 [Compound No. 57, 1,1-diethyl-3-methyl-5-phenylbiuret]	37.5		19		1/4	inhibition in vivo at 100 mg/kg [5, 10]: 23%; inhibition in vivo at 200 mg/kg (ddy strain of male mice [3]; [9]): 50%
CN(C)C(=O)N(C(=O)NC1CCCCC1)c1ccccc1 [compound 41, 1,1-Dimethyl-3-phenyl-5-cyclohexylbiuret]		62.5				LD50 at 168 h [1, 7]: 1280 mg/kg; inhibition in vivo at 200 mg/kg (ddy strain of male mice [2]; [8]): 50%
CN(C)C(=O)N(C)C(=O)Nc1ccccc1C(F)(F)F [Compound No. 17, 1,1,3-Trimethyl-5-(2-trifluoromethylphenyl)biuret]			65	1/4		Anti-inflammatory activity, inflammation inhibitory ratio [5, 13]: 66%; Analgesic activity, acetic acid-induced stretching method, inhibitory ratio (ddy strain of male mice [2]; [12]): 12.5%; Analgesic activity, Haffner method, inhibitory ratio (ddy strain of male mice [3]): 37.5%
CCN(C(=O)N(C)C(=O)NC)c1ccc(Cl)cc1 [compound 60, 1-Ethyl-1-(4-chlorophenyl)-3,5-dimethylbiuret]	75	50	88	1/4	3/4	inhibition in vivo at 100 mg/kg [5, 10]: 33%
CCCN(C)C(=O)N(C)C(=O)Nc1ccccc1 [compound 46, 1,3-Dimethyl-1-n-propyl-5-phenylbiuret]			44	1/4	4/4	Anti-inflammatory activity, inflammation inhibitory ratio ([5]; 100 mg/kg oral, (2 hours)): 26%; Analgesic activity, acetic acid-induced stretching method, inhibitory ratio (ddy strain of male mice [2]; 60 mg/kg oral): 75%; Analgesic activity, Haffner method, inhibitory ratio (ddy strain of male mice [3]): 37.5%
CCCN(C(=O)N(C)C(=O)NC)c1ccccc1 [compound 63, 1-n-Propyl-1-phenyl-3,5-dimethylbiuret]	50	50	76	3/4	4/4	inhibition in vivo at 100 mg/kg [5, 11]: 58%
